Experimental data taken from patent US6120997A, “Nucleic acid binders having an hydroxyamine motif” (The Scripps Research Institute, priority 1998, dated 2000).
pKd: −log10 of the molar value. Read-outs that look alike come from different tables or passages of the source.

How the values were obtained:
[1] = biological target: RBE3-neg; assay: SPR binding of aminoglycosides to RBE3-neg; conditions: 25 C; for pKd: pH 7.0, 10 mM HEPES, 150 mM NaCl, 0.1 mM EDTA, Scatchard slope; for Scatchard plot x-axis intercept (RBE3-neg): pH 7.0, 150 mM NaCl
Experimental: FIGS. 9A and 9B illustrate neomycin B binding to RBE3, RBE3-neg and wt-RRE-II. (A) Semilogarithmic plot. […] Conditions: pH 7.0, 10 mM HEPES, 150 mM NaCl, 0.1 mM EDTA, […].
FIGS. 10A and 10B illustrate paromomycin binding to RBE3, RBE3-neg and wt-RRE-II. (A) Semilogarithmic plot; the dashed line indicates the binding of neomycin B to wt-RRE-II for comparison (B) Scatchard plot. […] Conditions: pH 7.0, 10 mM HEPES, 150 mM NaCl, 0.1 mM EDTA, […].
Binding of the aminoglycoside to all three RNA oligonucleotides is observed starting in the low nanomolar concentration range and is non-saturable over the concentration range investigated. […] The high degree of non-specific binding is not surprising considering that aminoglycosides are highly charged polycations that tend to associate nonspecifically with the polyanionic phosphate backbone of RNA. […] Data points corresponding to 0.5 or more equivalents of neomycin B represent equilibrium values and can be analyzed with respect to stoichiometry and affinity of aminoglycoside binding. […] Both sequences bind one molecule of neomycin B with submicromolar affinity followed by weaker association with several additional equivalents of the antibiotic.
Samples were prepared by serial dilutions from stock solutions in RNase free microfuge tubes (Ambion) and were centrifuged at 14000 rpm for degassing. Buffers were filtered through sterile 0.2 &m nylon membranes (Nalgene) under vacuum, except for BIA certified HBS buffer (Pharmacia Biosensor AB) which was used as obtained. All procedures for binding studies were automated as methods using repetitive cycles of sample injection and regeneration. Typically, buffer was injected in the first two cycles to establish a stable baseline value. Samples were injected at a flowrate of 5-10 &L/min using either the KINJECT or the COINJECT command. All aminoglycoside and Rev27 samples were injected from autoclaved 7 mm plastic vials that were capped with pierceable plastic crimp caps. To minimize carry over, samples were injected in order of increasing concentration. The running buffer was identical to the injection buffer, except for the salt dependence study where a single running buffer was used for all injections. Expected values for the equilibrium response of one equivalent of analyte were calculated from the relative molecular weight of the analyte and the immobilized RNA ligand in each flowcells. These values were adjusted by multiplying with a factor of 0.8 or 0.57 for Rev27 or aminoglycosides respectively. These factors arise from the different molar refractive indices of RNA and the analyte and were determined from the Scatchard plot x-axis intercepts of the 1:1 binding isotherms for Rev27 and neomycin B.
Binding Studies with Aminoglycosides. […]

[2] = test system: Escherichia coli (ATCC 25922); assay: minimum inhibitory concentration, broth dilution technique; format: cell-based; conditions: E. coli, liquid culture
Text: We reasoned that this modification would provide the cleanest test for probing the ionic contribution, since hydrogen bond donor abilities, electronegativity and steric demand are similar for both functional groups. In order to learn how well the model system correlates with in vivo activity, we checked the new compounds for antibacterial activity against three bacterial strains using the disc method (Kirby-Bauer technique). The minimum inhibitory concentrations (MICs) of the compounds were then determined using the broth dilution technique. For antibiotic testing protocols, see: (a) Disk testing protocols: Phillips, I.; Williams, D., in Laboratory Methods in Antimicrobial Chemotherapy, Garrod, L. (ed.) Churchill Livingstone Press: Edinburgh, 1978, pp. 3-30. (b) MIC determination: Waterworth, P. M., in Laboratory Methods in Antimicrobial Chemotherapy, Garrod, L. (ed.) Churchill Livingstone Press: Edinburgh, 1978, pp. 31-40; Barry, A. L. The Antimicrobic Susceptibility Test: Principles and Practice, Lea and Febiger: Philadelphia (1976). (c) Standards: Lorian, V., Antibiotics in Laboratory Medicine (2nd. ed.), Williams and Wilkins: Baltimore, 1986.
FIG. 39A gives the zone diameters measured for the three bacterial strains. The zone diameters measured for the strains with known antibiotics are well within the accepted limits. […] It is worth noting that some testing protocols recommend overnight growth of the cultures, rather than the minimum time required to obtain good growth of the control. MIC values were tested for several of the control antibiotics using overnight growth, and the MIC values observed were 2-4× greater than those observed for 4-6 hour growth.
Minimal Inhibitory Concentration (MIC) testing. E. coli ATCC 25922 was grown in Mueller-Hinton broth (cation-adjusted, BBL Microbiology Systems) to an optical density of approx. 0.5 (absorbance read at 600 nm), then diluted to an OD600 of 0.1. Samples of antibiotic were prepared in Mueller-Hinton broth, typically a series of 2-fold dilutions from […]. […] The absorbance of each sample was read (1=600 nm), and MIC was considered to be the lowest antibiotic concentration at which the absorbance was less than 1% of the no-antibiotic control.

[3] = test system: Rev-RRE; conditions: cited from earlier work

| SMILES | pKd ([1]; read-out: Kd (RBE3-neg), neomycin B) | Scatchard plot x-axis intercept (RBE3-neg) [1] | antibacterial activity / MIC compared with neomycin B (in words) [2] | pKd ([1]; read-out: Kd (RBE3-neg), paromomycin) | reported inhibitory effect on Rev-RRE binding (in words) [3] | reported inhibition difference between neomycin B and paromomycin, Rev-RRE ([3]; gel-shift assays) [fold] |
| --- | --- | --- | --- | --- | --- | --- |
| NC[C@@H]1O[C@H](O[C@H]2[C@@H](O)[C@H](O[C@@H]3[C@@H](O)[C@H](N)C[C@H](N)[C@H]3O[C@H]3O[C@H](CN)[C@@H](O)[C@H](O)[C@H]3N)O[C@@H]2CO)[C@H](N)[C@@H](O)[C@@H]1O [Neomycin B] | 6.80 | 0.98 | within accepted ranges for sensitive E. coli strains |  |  |  |
| NC[C@@H]1O[C@H](O[C@H]2[C@@H](O)[C@H](O[C@@H]3[C@@H](O)[C@H](N)C[C@H](N)[C@H]3O[C@H]3O[C@H](CO)[C@@H](O)[C@H](O)[C@H]3N)O[C@@H]2CO)[C@H](N)[C@@H](O)[C@@H]1O [Paromomycin] |  | 1.05 |  | 5.51 | virtually no inhibitory effect | > 100 |
